In patent publication EP0314302A2, “Herbicidal o-carbomethoxy-sulfonylureas” (E.I. DU PONT DE NEMOURS AND COMPANY, priority 1987, dated 1989):

Tests used:
Goosegrass = assay: Test 11 windowsill flats, postemergence; assay type: in vivo, Eleusine indica; conditions: Postemergence 32 g/ha, 0.25% X-77 surfactant, scale 0-100
Description: (§1) Budded citrus seedlings were planted in 30-liter plastic pots which were also seeded with sandbur, guineagrass, narrowleaf panicum, common ragweed, yellow nutsedge, purple nutsedge and bindweed. Compound I was applied preemergence and postemergence to the weeds. Treatments were sprayed to simulate the trunk-to-trunk herbicide application method used in some citrus groves. The compound was also applied postemergence to weeds grown in windowsill flats. The flats were filled with planting medium and seeded with morningglory (Ipomoea spp.). purple nutsedge (Cyperus rotundus), pigweed (Amaranthus spp.), bindweed (Convolvulus spp.), narrowleaf panicum (Panicum maximum), common ragweed (Ambrosia artemisiifolia), sandbur (Cenchrus echinatus), itchgrass (Rottboellia exaltata), johnsongrass (Sorghum halepense), guineagrass (Panicum maximum), smooth crabgrass (Digitaria ischaemum), broadleaf signalgrass (Brachiaria platyphylla), bermudagrass (Cynodon dactylon), goosegrass (Eleusine indica), large crabgrass (Digitaria sanguinalis) and yellow nutsedge (Cyperus esculentus).
(§2) The compound was formulated and sprayed with 0.25% X-77 surfactant in water. Plants were visually rated 21 and 29 days after treatment and compared with appropriate controls. Injury ratings were based on the scale of 0 to 100, where 0 indicates no effect, 20 indicates minimum effect and 100 indicates complete control. […]

Sandbur = assay: Test 11 windowsill flats, postemergence; assay type: in vivo, Cenchrus echinatus; conditions: Postemergence 32 g/ha, 0.25% X-77 surfactant, scale 0-100
Description: as §1, §2

Buckhorn plantain = assay: Test 7 postemergence; assay type: in vivo, Plantago lanceolata; conditions: scale 0-100
Description: Individual 11.4-cm plastic pots filled with planting medium were seeded with rape, wild radish (Raphanus raphanistruna). tansy mustard (Descurainia pinnata), ball mustard (Neslia paniculata), black mustard (Brassica nigra), yellow mustard, brown mustard, lentils, safflower, flax, sunflower, peanut, vetch, alfalfa, field bean, pea, violet (Viola spp), Kochia (Kochia spp), Russian thistle (Salsola spp), Matricaria spp, groundsel (Senecio spp), shepherdspurse (Capsella bursa-pastoris), nightshade (Solanum spp), sowthistle (Sonchus spp), sugar beet, wheat, "Bonanza" barley and "Morex" barley, Kentucky bluegrass (Poa pratensis), red clover (Trifolium pratense), dandelion (Taraxacum spp) and buckhorn plantain (Plantago lanceolata).
Plants were treated postemergence with the compound formulated with a non-phytotoxic carrier. Plants were visually rated 18 days after treatment (DAT). Response ratings were based on the scale of 0 to 100 where 0 = no effect, 20 = minimal injury and 100 = complete control.

Purple nutsedge = assay: Test 11 citrus pots, postemergence to the weeds; assay type: in vivo, Cyperus rotundus; conditions: Postemergence 32 g/ha, 0.25% X-77 surfactant, scale 0-100
Description: as §1, §2

Secale cereale = assay: Test 1 greenhouse, preemergence; assay type: in vivo; conditions: 21 days, scale 0-100
Description: (§3) Seeds of Bromus tectorum, Kochia scoparia, Salsoa kali, Avena fatua, Convolvulus arvensis, Secale cereale, Setaria viridis and Triticum aestivum were placed in 26-cm plastic pans containing a pasteurized sandy loam soil (pH 6.5, 1% organic matter). Plantings were maintained in the greenhouse for 18-28 days at which time the postemergence treatments were applied using a nonphytotoxic solvent as the carrier for the herbicide. The preemergence segment of the test was seeded immediately before herbicide application using Bromus tectorum, Kochia scoparia, Polygonum convolvulus, Salsoa kali, Avena fatua, Convolvulus arvensis, Secale cereale, Setaria viridis, Aegilops cylindrica, Amaranthus retroflexus, Chenopodium album, Hordeum vulgare, Triticum aestivum, Sorghum bicolor, and Zea mays. All treatments were maintained in the greenhouse for an additional 21 days at which time visual assessment of weed control was determined using a scale of 0 to 100 for each species where 0 represented no control and 100 represented complete control.

Polygonum convolvulus = assay: Test 1 greenhouse, preemergence; assay type: in vivo; conditions: 21 days, scale 0-100
Description: as §3

Salsoa kali = assay: Test 1 greenhouse, preemergence; assay type: in vivo; conditions: 21 days, scale 0-100
Description: as §3

Convolvulus arvensis = assay: Test 1 greenhouse, preemergence; assay type: in vivo; conditions: 21 days, scale 0-100
Description: as §3

Sorghum bicolor = assay: Test 1 greenhouse, preemergence; assay type: in vivo; conditions: 21 days, scale 0-100
Description: as §3

Setaria viridis = assay: Test 1 greenhouse, preemergence; assay type: in vivo; conditions: 21 days, scale 0-100
Description: as §3

Kochia scoparia = assay: Test 1 greenhouse, preemergence; assay type: in vivo; conditions: 21 days, scale 0-100
Description: as §3

Hordeum vulgare = assay: Test 1 greenhouse, preemergence; assay type: in vivo; conditions: 21 days, scale 0-100
Description: as §3

Triticum aestivum = assay: Test 1 greenhouse, preemergence; assay type: in vivo; conditions: 21 days, scale 0-100
Description: as §3

Aegilops cylindrica = assay: Test 1 greenhouse, preemergence; assay type: in vivo; conditions: 21 days, scale 0-100
Description: as §3

COC(=O)c1cccnc1S(=O)(=O)NC(=O)Nc1nc(OC)cc(OC)n1 [Compound I, 2-[[(4,6-dimethoxypyrimidin-2-yl)aminocarbonyl]aminosulfonyl]-3-pyridinecarboxylic acid, methyl ester]
30: Plant Injury Rating 18 DAT (Buckhorn plantain; 16 g/ha) | visual assessment of weed control (Secale cereale; 8 g/ha) | visual assessment of weed control (Setaria viridis; 8 g/ha) | visual assessment of weed control (Aegilops cylindrica; 4 g/ha)
50: Plant Injury Rating 18 DAT (Buckhorn plantain; 32 g/ha) | visual assessment of weed control (Salsoa kali; 4 g/ha) | visual assessment of weed control (Setaria viridis; 16 g/ha) | visual assessment of weed control (Hordeum vulgare; 4 g/ha) | visual assessment of weed control (Aegilops cylindrica; 8 g/ha)
40: visual assessment of weed control (Secale cereale; 16 g/ha) | visual assessment of weed control (Convolvulus arvensis; 8 g/ha)
100: Injury ratings (Sandbur) | visual assessment of weed control (Polygonum convolvulus; 125 g/ha) | visual assessment of weed control (Salsoa kali; 64 g/ha) | visual assessment of weed control (Salsoa kali; 125 g/ha) | visual assessment of weed control (Convolvulus arvensis; 64 g/ha) | visual assessment of weed control (Convolvulus arvensis; 125 g/ha) | visual assessment of weed control (Sorghum bicolor; 8 g/ha) | visual assessment of weed control (Sorghum bicolor; 16 g/ha) | visual assessment of weed control (Sorghum bicolor; 32 g/ha) | visual assessment of weed control (Sorghum bicolor; 64 g/ha) | visual assessment of weed control (Sorghum bicolor; 125 g/ha) | visual assessment of weed control (Setaria viridis; 125 g/ha) | visual assessment of weed control (Kochia scoparia; 16 g/ha) | visual assessment of weed control (Kochia scoparia; 32 g/ha) | visual assessment of weed control (Kochia scoparia; 64 g/ha) | visual assessment of weed control (Kochia scoparia; 125 g/ha) | visual assessment of weed control (Triticum aestivum; 8 g/ha) | visual assessment of weed control (Triticum aestivum; 16 g/ha) | visual assessment of weed control (Triticum aestivum; 32 g/ha) | visual assessment of weed control (Triticum aestivum; 64 g/ha) | visual assessment of weed control (Triticum aestivum; 125 g/ha) | visual assessment of weed control (Aegilops cylindrica; 64 g/ha) | visual assessment of weed control (Aegilops cylindrica; 125 g/ha)
20: visual assessment of weed control (Secale cereale; 4 g/ha) | visual assessment of weed control (Polygonum convolvulus; 4 g/ha) | visual assessment of weed control (Polygonum convolvulus; 8 g/ha) | visual assessment of weed control (Convolvulus arvensis; 4 g/ha) | visual assessment of weed control (Setaria viridis; 4 g/ha)
80: visual assessment of weed control (Secale cereale; 64 g/ha) | visual assessment of weed control (Polygonum convolvulus; 16 g/ha) | visual assessment of weed control (Polygonum convolvulus; 32 g/ha) | visual assessment of weed control (Polygonum convolvulus; 64 g/ha) | visual assessment of weed control (Salsoa kali; 32 g/ha) | visual assessment of weed control (Kochia scoparia; 4 g/ha) | visual assessment of weed control (Kochia scoparia; 8 g/ha) | visual assessment of weed control (Hordeum vulgare; 32 g/ha) | visual assessment of weed control (Hordeum vulgare; 64 g/ha) | visual assessment of weed control (Aegilops cylindrica; 32 g/ha)
70: visual assessment of weed control (Secale cereale; 32 g/ha) | visual assessment of weed control (Salsoa kali; 8 g/ha) | visual assessment of weed control (Salsoa kali; 16 g/ha) | visual assessment of weed control (Setaria viridis; 32 g/ha) | visual assessment of weed control (Hordeum vulgare; 16 g/ha) | visual assessment of weed control (Triticum aestivum; 4 g/ha)
90: Injury ratings (Goosegrass) | Injury ratings (Purple nutsedge) | visual assessment of weed control (Secale cereale; 125 g/ha) | visual assessment of weed control (Convolvulus arvensis; 16 g/ha) | visual assessment of weed control (Convolvulus arvensis; 32 g/ha) | visual assessment of weed control (Sorghum bicolor; 4 g/ha) | visual assessment of weed control (Setaria viridis; 64 g/ha) | visual assessment of weed control (Hordeum vulgare; 125 g/ha)
60: visual assessment of weed control (Hordeum vulgare; 8 g/ha) | visual assessment of weed control (Aegilops cylindrica; 16 g/ha)
